Results from patent US8053453B2, “Pyrazolone compounds and thrombopoietin receptor activator” (Nissan Chemical Industries, Ltd., priority 2002, dated 2011).
Read-outs that look alike come from different tables or passages of the source.

Target: T1, human TPO receptor (Homo sapiens, UniProt P40238)
T1 construct: expressed in transfected cells
T1 sequence (P40238 26-635): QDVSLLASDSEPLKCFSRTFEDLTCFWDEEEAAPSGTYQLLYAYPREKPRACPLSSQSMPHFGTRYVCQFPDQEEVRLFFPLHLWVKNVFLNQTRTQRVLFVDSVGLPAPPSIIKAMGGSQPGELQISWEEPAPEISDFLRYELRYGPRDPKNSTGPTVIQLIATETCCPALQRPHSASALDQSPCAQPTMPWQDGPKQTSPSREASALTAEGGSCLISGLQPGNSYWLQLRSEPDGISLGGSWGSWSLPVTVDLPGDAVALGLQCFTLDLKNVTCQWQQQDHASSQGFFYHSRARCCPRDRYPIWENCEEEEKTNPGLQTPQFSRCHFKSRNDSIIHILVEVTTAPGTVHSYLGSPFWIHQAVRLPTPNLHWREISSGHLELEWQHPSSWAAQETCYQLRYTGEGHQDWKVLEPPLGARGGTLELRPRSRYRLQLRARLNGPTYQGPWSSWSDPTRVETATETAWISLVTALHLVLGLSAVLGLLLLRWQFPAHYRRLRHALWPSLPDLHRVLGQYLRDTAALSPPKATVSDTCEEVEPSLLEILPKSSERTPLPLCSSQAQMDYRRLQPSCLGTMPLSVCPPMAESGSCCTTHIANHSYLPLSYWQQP
Experiment: Proliferation of TPO-dependent cell line UT7/EPO-mpl, MTT method (Assay Examples 1, 3, 4)
Type: cell-based
Settings: UT7/EPO-mpl cells; for EC50: concentration giving 50% of the maximum cell growth observed with the same compound; for Efficacy (%) (maximal growth rate) / Emax: value in the presence of 10 ng/ml TPO taken as 100% standard, method of Assay Example 1; for Emax: read-out: Efficacy (%) (maximal growth rate)
Protocol: The reactivity of Synthetic Example 56, the compound of the present invention, with thrombopoietin (TPO) receptor was assayed using a human leukemic cell line, UT7/EPO-mpl.
UT7/EPO-mpl is a stable transformed cell line obtained by introducing into human leukemic cell line UT7/EPO a vector that induces expression of human TPO receptor (c-mp1) under control of a cytomegaloviral promoter by the method of Takatoku et al. (J. Biol. Chem., 272:7259-7263 (1997)). […] These two cell lines were subcultured in Iscove's modified Dulbecco's medium (IMDM; GIBCO) containing 10% fetal bovine serum (FBS; TRACE SCIENTIFIC) using a CO2 incubator (5% CO2, 37° C.).
The subcultured cells described above were washed twice with phosphate buffered saline (PBS) and suspended in IMDM containing 10% FBS at a cell density of 6×10^4 cells/ml. The cell suspension was transferred to a 96-well tissue culture plate (CORNING) in 100-μl aliquots. Then either TPO (PeproTech EC) or Synthetic Example 56 dissolved in dimethylsulfoxide (DMSO) was diluted 83-fold with IMDM containing 10% FBS and added to the aforementioned cell suspension in 20-μl aliquots. The suspension was incubated in a CO2 incubator (5% CO2, 37° C.) for 4 days. Cell proliferation was assayed according to the method of Mosmann et al. (J. Immunol. Methods, 65:55-63 (1983)). A 10-μl aliquot of 5 mg/ml MTT reagent (SIGMA) was added to each well of the tissue culture plate and the plate was incubated at 37° C. for 4 h. The formazan pigment generated was dissolved by adding 150 μl per well of 0.1 M HCl/isopropanol solution and the absorbance of the resulting pigment solution was measured at 550 nm with a 96-well microplate reader (BIO-RAD, M450).
The following Synthetic Examples were tested according to the method of Assay Example 1 to determine the maximal growth rate (efficacy), expressed by taking the value with human leukemic cell line UT7/EPO-mpl observed in the presence of 10 ng/ml TPO as 100% standard, and the concentration of each compound that yields a growth rate corresponding to 50% of the maximum cell growth observed with the same compound (EC50).
Synthetic Example 56, the compound of the present invention, and four compounds (Reference Synthetic Examples 1 to 4) described in a publication of international patent application (Publication No. WO01/34585, applied by SmithKline Beecham Corp.) were tested according to the method of Assay Example 1.

[1] = read-out: EC50 (ng/ml) (converted)

Row | SMILES | EC50 [ng/mL] | Efficacy (%) (maximal growth rate) | EC50 [1] [nM] | Emax [%]
1 | CC1=NN(c2ccccc2)C(=O)C1=C(C)NNC(=O)c1ccccc1[N+](=O)[O-] [compound 21] | 290 | 39 | – | –
2 | CC1=NN(c2ccc(Cl)c(Cl)c2)C(=O)C1=C(C)NNC(=O)c1ccc(O)cc1 [compound 62] | 6.4 | 57 | – | –
3 | CC1=NN(c2ccccc2)C(=O)C1=C(C)NNC(=O)c1ccc(O)cc1 [compound 17] | 79 | 73 | – | –
4 | CC1=NN(c2cccc(C(F)(F)F)c2)C(=O)C1=C(C)NNC(=O)c1ccc(O)cc1 [compound 46] | 15 | 82 | – | –
5 | CC1=NN(c2ccc(C)c(C)c2)C(=O)C1=C(C)NNC(=O)c1ccccc1[N+](=O)[O-] [compound 58] | 32 | 110 | – | –
6 | CC1=NN(c2ccc(C)c(C)c2)C(=O)C1=C(C)NNC(=O)c1cccc(O)c1 [compound 82] | 26 | 84 | – | –
7 | CC1=NN(c2cccc(C(F)(F)F)c2)C(=O)C1=C(C)NNC(=O)c1ccc(O)cc1O [compound 48] | 8.0 | 62 | – | –
8 | CC1=NN(c2cccc(C(F)(F)F)c2)C(=O)C1=C(C)NNC(=O)c1ccc([N+](=O)[O-])cc1 [compound 52] | – | – | 268 | 22
9 | CC1=NN(c2ccc(C(C)(C)C)cc2)C(=O)C1=C(C)NNC(=O)c1cc(O)cc(O)c1 [compound 2] | 6.3 | 89 | – | –
10 | CC1=NN(c2ccc(C(F)(F)F)cc2)C(=O)C1=C(C)NNC(=O)c1ccc(N)cc1 [compound 92] | 5.5 | 82 | – | –
11 | CC1=NN(c2ccc(C(F)(F)F)cc2)C(=O)C1=C(C)NNC(=O)c1ccccc1O [compound 30] | 19 | 106 | – | –
12 | CC1=NN(c2ccc(C(C)(C)C)cc2)C(=O)C1=C(C)NNC(=O)c1ccccc1O [compound 23] | 28 | 129 | – | –
13 | CC1=NN(c2ccc(C)c(C)c2)C(=O)C1=C(C)NNC(=O)c1ccc(O)c(O)c1 [compound 57] | 5.9 | 97 | – | –
14 | CC1=NN(c2cccc(C(F)(F)F)c2)C(=O)C1=C(C)NNC(=O)c1ccc(C(=O)O)cc1 [compound 9] | 5.1 | 90 | – | –
15 | CC1=NN(c2ccc(C(F)(F)F)cc2)C(=O)C1=C(C)NNC(=O)c1ccc([N+](=O)[O-])cc1 [compound 37] | 140 | 63 | – | –
16 | CC1=NN(c2ccccc2)C(=O)C1=C(C)NNC(=O)c1ccc(O)cc1O [compound 19] | 14 | 100 | – | –
17 | COC(=O)c1ccc(C(=O)NNC(C)=C2C(=O)N(c3cccc(C(F)(F)F)c3)N=C2C)cc1 [compound 8] | – | – | 67.3 | 52
18 | CC1=NN(c2cccc(C(F)(F)F)c2)C(=O)C1=C(C)NNC(=O)c1cccc([N+](=O)[O-])c1 [compound 51] | 33 | 73 | – | –
19 | Cc1ccc(-n2nc(C)c(C=NN3CC(=O)N(c4ccc(C(=O)O)cc4)C3=S)c2O)cc1C [Reference Synthetic Example 4, 3-(4-carboxyphenyl)-1-[(1-{3,4-dimethylphenyl}-5-hydroxy-3-methyl-1H-pyrazol-4-ylmethylene)amino]-2-thioxoimidazolidin-4-one, reference compound] | – | – | 3020 | 67
20 | CC1=NN(c2ccc(C)c(C)c2)C(=O)C1=C(C)NNC(=O)c1ccc(N)cc1 [compound 73] | 10 | 84 | – | –

Row | SMILES | EC50 [ng/mL] | Efficacy (%) (maximal growth rate) | EC50 [1] [nM] | Emax [%]
21 | CC1=NN(c2ccc(C(F)(F)F)cc2)C(=O)C1=C(C)NNC(=O)c1cccc([N+](=O)[O-])c1 [compound 36] | 59 | 97 | – | –
22 | CC1=NN(c2ccc(Cl)c(Cl)c2)C(=O)C1=C(C)NNC(=O)c1ccc(O)cc1O [compound 64] | 7.7 | 74 | – | –
23 | Cc1ccc(-n2nc(C)c(C=NN3CC(=O)N(c4cccc(C(=O)O)c4)C3=S)c2O)cc1C [Reference Synthetic Example 3, 3-(3-carboxyphenyl)-1-[(1-{3,4-dimethylphenyl}-5-hydroxy-3-methyl-1H-pyrazol-4-ylmethylene)amino]-2-thioxoimidazolidin-4-one, reference compound] | – | – | – | 7
24 | CC1=NN(c2cccc([N+](=O)[O-])c2)C(=O)C1=C(C)NNC(=O)c1ccc(C(C)(C)C)cc1 [compound 88] | 130 | 70 | – | –
25 | CC1=NN(c2ccc(C(C)(C)C)cc2)C(=O)C1=C(C)NNC(=O)c1ccc(O)cc1 [compound 24] | 7.2 | 89 | – | –
26 | CC1=NN(c2cccc(C(F)(F)F)c2)C(=O)C1=C(C)NNC(=O)c1ccccc1[N+](=O)[O-] [compound 50] | 37 | 89 | – | –
27 | CC1=NN(c2cccc(C(F)(F)F)c2)C(=O)C1=C(C)NNC(=O)c1cccc(N)c1 [compound 89] | 39 | 68 | – | –
28 | CC1=NN(c2ccc(C)c(C)c2)C(=O)C1=C(C)NNC(=O)c1cccc(N)c1 [compound 74] | 25 | 77 | – | –
29 | CC1=NN(c2ccc(C(C)(C)C)cc2)C(=O)C1=C(C)NNC(=O)c1ccc(C(F)(F)F)cc1 [compound 71] | 69 | 89 | – | –
30 | CC1=NN(c2ccc(C(F)(F)F)cc2)C(=O)C1=C(C)NNC(=O)c1ccccc1[N+](=O)[O-] [compound 35] | 34 | 99 | – | –
31 | CC1=NN(c2ccc(C(C)(C)C)cc2)C(=O)C1=C(C)NNC(=O)c1ccc(O)c(O)c1 [compound 27] | 5.6 | 75 | – | –
32 | CC1=NN(c2ccc(C)c(C)c2)C(=O)C1=C(C)NNC(=O)c1ccc(O)cc1 [compound 54] | 7.5 | 61 | – | –
33 | CC1=NN(c2ccc(C)c(C)c2)C(=O)C1=C(C)NNC(=O)c1cc(O)cc(O)c1 [compound 3] | 15 | 82 | – | –
34 | CC1=NN(c2ccc(Cl)c(Cl)c2)C(=O)C1=C(C)NNC(=O)c1cccc(N)c1 [compound 78] | 15 | 69 | – | –
35 | CC1=NN(c2ccc(Cl)c(Cl)c2)C(=O)C1=C(C)NNC(=O)c1cccc([N+](=O)[O-])c1 [compound 67] | 33 | 80 | – | –
36 | CC1=NN(c2ccc(Cl)c(Cl)c2)C(=O)C1=C(C)NNC(=O)c1ccc([N+](=O)[O-])cc1 [compound 68] | 210 | 26 | – | –
37 | COC(=O)c1ccc(C(=O)NNC(C)=C2C(=O)N(c3ccc(C(F)(F)F)cc3)N=C2C)cc1 [compound 10] | – | – | 43.4 | 78
38 | CC1=NN(c2ccc(C)c(C)c2)C(=O)C1=C(C)NNC(=O)c1cccc([N+](=O)[O-])c1 [compound 59] | – | – | 58.9 | 82
39 | CC1=NN(c2ccc(C(F)(F)F)cc2)C(=O)C1=C(C)NNC(=O)c1cccc(N)c1 [compound 91] | 24 | 81 | – | –
